In US20150158845A1, “5-HALOGEN-SUBSTITUTED OXINDOLE DERIVATIVES AND USE THEREOF FOR TREATING VASOPRESSIN-DEPENDENT DISEASES” (ABBVIE DEUTSCHLAND GMBH & CO. KG, priority 2007, published 2015):

Key:
[1] = biological target: human vasopressin V1a receptor (Homo sapiens, UniProt P37288); assay: Vasopressin V1a receptor binding assay; conditions: selectivity: quotient of Ki at human V1a and Ki at human V1b
[2] = Determination of the microsomal half-life / microsomal clearance; assay type: in vitro ADME; conditions: pH 7.4; human liver microsomes, 0.5 μM test substance, 0.25 mg microsomal protein/ml
Procedure: 5. Determination of the Microsomal Half-Life:
The metabolic stability of the compounds of the invention was determined in the following assay.
The test substances were incubated in a concentration of 0.5 μM as follows: 0.5 μM test substance are preincubated together with liver microsomes from different species (from rat, human or other species) (0.25 mg of microsomal protein/ml) in 0.05 M potassium phosphate buffer of pH 7.4 in microtiter plates at 37° C. for 5 min. The reaction is started by adding NADPH (1 mg/mL). After 0, 5, 10, 15, 20 and 30 min, 50 μl aliquots are removed, and the reaction is immediately stopped and cooled with the same volume of acetonitrile. The samples are frozen until analyzed. The remaining concentration of undegraded test substance is determined by MSMS. The half-life (T½) is determined from the gradient of the signal of test substance/unit time plot, it being possible to calculate the half-life of the test substance, assuming first order kinetics, from the decrease in the concentration of the compound with time. The microsomal clearance (mCl) is calculated from mCl=In2/T½/(content of microsomal protein in mg/ml)×1000 […] (modified from references: Di, The Society for Biomoleculur Screening, 2003, 453-462; Obach, DMD, 1999 vol 27. N 11, 1350-1359).

[3] = biological target: T1, human vasopressin V1b receptor (Homo sapiens, UniProt P47901); assay: Vasopressin V1b receptor binding assay; conditions: membranes from CHO-K1 cells with human V1b receptor, 1.5 nM 3H-AVP
T1 construct: expressed in transfected cells; host or cells: CHO-K1 (clone 3H2; cell line hV1b-3H2_CHO), membrane preparation
T1 sequence (P47901 1-424): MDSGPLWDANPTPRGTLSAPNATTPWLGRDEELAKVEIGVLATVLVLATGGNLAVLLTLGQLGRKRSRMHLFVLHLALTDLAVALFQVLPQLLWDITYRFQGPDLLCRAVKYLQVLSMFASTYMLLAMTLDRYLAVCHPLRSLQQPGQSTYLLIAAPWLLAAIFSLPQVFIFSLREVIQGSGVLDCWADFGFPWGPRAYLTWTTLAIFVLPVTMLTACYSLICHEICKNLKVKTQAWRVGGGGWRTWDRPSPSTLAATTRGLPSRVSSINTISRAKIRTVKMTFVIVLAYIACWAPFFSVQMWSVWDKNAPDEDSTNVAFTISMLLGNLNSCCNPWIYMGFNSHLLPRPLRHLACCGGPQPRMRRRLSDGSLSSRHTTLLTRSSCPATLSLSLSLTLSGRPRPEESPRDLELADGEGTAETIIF
Procedure: 1. Vasopressin V1b Receptor Binding Assay:
The substance concentration was further diluted 1:5 in the assay mixture (2% DMSO in the mixture).
The nonspecific binding was determined with 1 M AVP (Bachem # H1780). All determinations were carried out as triplicate determinations.

Chain of human vasopressin V1a receptor (P37288 whole entry): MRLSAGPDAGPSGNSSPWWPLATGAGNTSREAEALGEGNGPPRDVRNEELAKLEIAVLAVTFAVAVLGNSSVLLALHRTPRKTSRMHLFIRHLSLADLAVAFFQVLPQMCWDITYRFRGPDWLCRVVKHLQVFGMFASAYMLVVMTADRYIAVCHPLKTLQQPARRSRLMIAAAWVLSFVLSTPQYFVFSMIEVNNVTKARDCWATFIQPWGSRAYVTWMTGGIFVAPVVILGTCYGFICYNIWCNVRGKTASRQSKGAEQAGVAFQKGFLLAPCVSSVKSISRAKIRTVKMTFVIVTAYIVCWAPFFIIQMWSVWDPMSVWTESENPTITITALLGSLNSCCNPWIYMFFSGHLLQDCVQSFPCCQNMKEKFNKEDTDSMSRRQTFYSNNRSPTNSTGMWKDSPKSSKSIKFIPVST

CCOc1ncccc1C1(NC(=O)N2CCC(N3CCN(CC)CC3)CC2)C(=O)N(S(=O)(=O)c2ccc(OC)cc2OC)c2ccc(Cl)cc21 (single isomer, unassigned; (+)) [Example 8B, (+)-4-(4-Ethylpiperazin-1-yl)piperidine-1-[5-chloro-1-(2,4-dimethoxyphenylsulfonyl)-3-(2-ethoxypyridin-3-yl)-2-oxo-2,3-dihydro-1H-indol-3-yl]carboxamide]
Ki(h-V1a)/Ki(h-V1b) [1]: +++ (>75) | microsomal CLint at 0.5 μM [2]: 75 to 100 µL/min/mg | Ki [3]: < 1 nM
